Test results as given in US4515942A, “Antibiotics KA-6606 XII, XIII, XV, XVI and XVII” (Kowa Company, Ltd., priority 1980, dated 1985).

test system: Bacillus subtilis ATCC 6633; assay: disc plate method (Table 2); type: cell-based; settings: Bacillus subtilis, ATCC6633, 1 mg/ml; paper disc 8 mm; Bacillus subtilis ATCC 6633 (Table 2); read-out: Inhibition zone (diameter)
Excerpt: (§1) Tables 1 and 2 show the antibacterial spectra of the antibiotics KA-6606 VII to KA-6606 XVII against various bacteria, determined by the disc plate method, in comparison with the KA-6606 II substance. Each of the chemicals is used as impregnated in a paper disc having a diameter of 8 mm.

SMILES	zone of inhibition at 1000 µg/mL [mm]
CNC1C(OC)CC(N)C(OC2OC(CN)=CCC2N)C1O (stereo not drawn) [KA-6606 XV]	23.1
CNC1C(OC)CC(N)C(OC2OC(C(C)N)=CCC2N)C1O (stereo not drawn) [KA-6606 XIII]	22.6
CNC1C(O)CC(N)C(OC2OC(C(C)N)CCC2N)C1O (stereo not drawn) [KA-6606 IX]	23.8

test system: Proteus inconstans; assay: disc plate method (Table 2); type: cell-based; settings: 1 mg/ml; paper disc 8 mm; Proteus inconstans (Table 2)
Excerpt: as §1

SMILES	Inhibition zone (diameter) [mm]
CNC1C(O)CC(N)C(OC2OC(C(C)N)CCC2N)C1O (stereo not drawn) [KA-6606 IX]	9.4

same assay, conditions: Providencia alcalifaciens, 1 mg/ml; paper disc 8 mm; Proteus inconstans (Table 2); read-out: Inhibition zone (diameter)

SMILES	zone of inhibition at 1000 µg/mL [mm]
CNC1C(OC)CC(N)C(OC2OC(CN)=CCC2N)C1O (stereo not drawn) [KA-6606 XV]	9
CNC1C(OC)CC(N)C(OC2OC(C(C)N)=CCC2N)C1O (stereo not drawn) [KA-6606 XIII]	14.3

test system: Klebsiella pneumoniae PCI 602; assay: disc plate method (Table 2); type: cell-based; settings: Klebsiella pneumoniae, PCI602, 1 mg/ml, paper disc 8 mm, read-out: Inhibition zone (diameter)
Excerpt: as §1

SMILES	zone of inhibition at 1000 µg/mL [mm]
CNC1C(OC)CC(N)C(OC2OC(CN)=CCC2N)C1O (stereo not drawn) [KA-6606 XV]	18.6
CNC1C(OC)CC(N)C(OC2OC(C(C)N)=CCC2N)C1O (stereo not drawn) [KA-6606 XIII]	17
CNC1C(O)CC(N)C(OC2OC(C(C)N)CCC2N)C1O (stereo not drawn) [KA-6606 IX]	13.7

test system: Pseudomonas aeruginosa NCTC 10490; assay: disc plate method (Table 2); type: cell-based; settings: Pseudomonas aeruginosa, NCTC10490, 1 mg/ml, paper disc 8 mm, read-out: Inhibition zone (diameter)
Excerpt: as §1

SMILES	zone of inhibition at 1000 µg/mL [mm]
CNC1C(OC)CC(N)C(OC2OC(CN)=CCC2N)C1O (stereo not drawn) [KA-6606 XV]	16.2
CNC1C(OC)CC(N)C(OC2OC(C(C)N)=CCC2N)C1O (stereo not drawn) [KA-6606 XIII]	14.8
CNC1C(O)CC(N)C(OC2OC(C(C)N)CCC2N)C1O (stereo not drawn) [KA-6606 IX]	15.9

test system: Proteus vulgaris OX-107; assay: disc plate method (Table 2); type: cell-based; settings: Proteus vulgaris, OX107, 1 mg/ml, paper disc 8 mm, read-out: Inhibition zone (diameter)
Excerpt: as §1

SMILES	zone of inhibition at 1000 µg/mL [mm]
CNC1C(OC)CC(N)C(OC2OC(CN)=CCC2N)C1O (stereo not drawn) [KA-6606 XV]	16.4
CNC1C(OC)CC(N)C(OC2OC(C(C)N)=CCC2N)C1O (stereo not drawn) [KA-6606 XIII]	18.5
CNC1C(O)CC(N)C(OC2OC(C(C)N)CCC2N)C1O (stereo not drawn) [KA-6606 IX]	15.2

test system: Serratia marcescens NHL; assay: disc plate method (Table 2); type: cell-based; settings: Serratia marcescens, 1 mg/ml, paper disc 8 mm, read-out: Inhibition zone (diameter)
Excerpt: as §1

SMILES	zone of inhibition at 1000 µg/mL [mm]
CNC1C(OC)CC(N)C(OC2OC(CN)=CCC2N)C1O (stereo not drawn) [KA-6606 XV]	18.2
CNC1C(OC)CC(N)C(OC2OC(C(C)N)=CCC2N)C1O (stereo not drawn) [KA-6606 XIII]	18.5
CNC1C(O)CC(N)C(OC2OC(C(C)N)CCC2N)C1O (stereo not drawn) [KA-6606 IX]	16

test system: Staphylococcus aureus 209D-JC-1; assay: disc plate method (Table 2); type: cell-based; settings: Staphylococcus aureus, 209DJC1, 1 mg/ml, paper disc 8 mm, read-out: Inhibition zone (diameter)
Excerpt: as §1

SMILES	zone of inhibition at 1000 µg/mL [mm]
CNC1C(OC)CC(N)C(OC2OC(CN)=CCC2N)C1O (stereo not drawn) [KA-6606 XV]	23.3
CNC1C(OC)CC(N)C(OC2OC(C(C)N)=CCC2N)C1O (stereo not drawn) [KA-6606 XIII]	22
CNC1C(O)CC(N)C(OC2OC(C(C)N)CCC2N)C1O (stereo not drawn) [KA-6606 IX]	22.9

test system: Escherichia coli NIHJ JC-2; assay: disc plate method (Table 2); type: cell-based; settings: Escherichia coli, NIHJJC2, 1 mg/ml, paper disc 8 mm, read-out: Inhibition zone (diameter)
Excerpt: as §1

SMILES	zone of inhibition at 1000 µg/mL [mm]
CNC1C(OC)CC(N)C(OC2OC(CN)=CCC2N)C1O (stereo not drawn) [KA-6606 XV]	18.5
CNC1C(OC)CC(N)C(OC2OC(C(C)N)=CCC2N)C1O (stereo not drawn) [KA-6606 XIII]	18.4
CNC1C(O)CC(N)C(OC2OC(C(C)N)CCC2N)C1O (stereo not drawn) [KA-6606 IX]	16.7

test system: not listed separately; assay: Solubility in solvents; type: physicochemical; settings: chloroform

Solubility in solvents: chloroform	SMILES
Insoluble	CNC1C(OC)CC(N)C(OC2OC(CN)=CCC2N)C1O (stereo not drawn) [KA-6606 XV]
Insoluble	CNC1C(OC)CC(N)C(OC2OC(C(C)N)=CCC2N)C1O (stereo not drawn) [KA-6606 XIII]
Insoluble	CNC1C(O)CC(N)C(OC2OC(C(C)N)CCC2N)C1O (stereo not drawn) [KA-6606 IX]

same assay, conditions: ethyl acetate

Solubility in solvents: ethyl acetate	SMILES
Insoluble	CNC1C(OC)CC(N)C(OC2OC(CN)=CCC2N)C1O (stereo not drawn) [KA-6606 XV]
Insoluble	CNC1C(OC)CC(N)C(OC2OC(C(C)N)=CCC2N)C1O (stereo not drawn) [KA-6606 XIII]
Insoluble	CNC1C(O)CC(N)C(OC2OC(C(C)N)CCC2N)C1O (stereo not drawn) [KA-6606 IX]

same assay, conditions: methanol

Solubility in solvents: methanol	SMILES
Easily soluble	CNC1C(OC)CC(N)C(OC2OC(CN)=CCC2N)C1O (stereo not drawn) [KA-6606 XV]
Easily soluble	CNC1C(OC)CC(N)C(OC2OC(C(C)N)=CCC2N)C1O (stereo not drawn) [KA-6606 XIII]
Easily soluble	CNC1C(O)CC(N)C(OC2OC(C(C)N)CCC2N)C1O (stereo not drawn) [KA-6606 IX]

same assay, conditions: water

Solubility in solvents: water	SMILES
Easily soluble	CNC1C(OC)CC(N)C(OC2OC(CN)=CCC2N)C1O (stereo not drawn) [KA-6606 XV]
Easily soluble	CNC1C(OC)CC(N)C(OC2OC(C(C)N)=CCC2N)C1O (stereo not drawn) [KA-6606 XIII]
Easily soluble	CNC1C(O)CC(N)C(OC2OC(C(C)N)CCC2N)C1O (stereo not drawn) [KA-6606 IX]

test system: not listed separately; assay: Stability; type: physicochemical; settings: pH range in which stable

Stability (stable at pH)	SMILES
2-10 pH	CNC1C(OC)CC(N)C(OC2OC(CN)=CCC2N)C1O (stereo not drawn) [KA-6606 XV]
2-10 pH	CNC1C(OC)CC(N)C(OC2OC(C(C)N)=CCC2N)C1O (stereo not drawn) [KA-6606 XIII]
2-10 pH	CNC1C(O)CC(N)C(OC2OC(C(C)N)CCC2N)C1O (stereo not drawn) [KA-6606 IX]
